# Laboratory results from US20240409585A1, “MACROCYCLIC IMMUNOMODULATORS” (priority 2021, published 2024).
# Bridge positions count the residues as written; N and C are the ends. Square brackets hold non-standard residues; d marks the D form. Peptide text beside a SMILES is read from it. * marks the point of attachment. ξ: configuration not given here. Ala(morpholin-4-yl) = N[C@@H](CN1CCOCC1)C(=O)O; Phe(4-COOH) = N[C@@H](Cc1ccc(C(=O)O)cc1)C(=O)O; Bip = N[C@@H](Cc1ccc(-c2ccccc2)cc1)C(=O)O; dPhe(4-Br) = N[C@H](Cc1ccc(Br)cc1)C(=O)O; Phe(3-F) = N[C@@H](Cc1cccc(F)c1)C(=O)O; Phe(3-Me) = Cc1cccc(C[C@H](N)C(=O)O)c1; hTyr = N[C@@H](CCc1ccc(O)cc1)C(=O)O; Val(3-OH) = CC(C)(O)[C@H](N)C(=O)O; 2Pal = N[C@@H](Cc1ccccn1)C(=O)O; 4Pal = N[C@@H](Cc1ccncc1)C(=O)O; Cha = N[C@@H](CC1CCCCC1)C(=O)O; Cit = NC(=O)NCCC[C@H](N)C(=O)O; Ile(3ξ) = CCC(C)[C@H](N)C(=O)O; Thr(3ξ) = CC(O)[C@H](N)C(=O)O; Carboxymethyl = O=C(O)C*; NMeA = CN[C@@H](C)C(=O)O; Orn = NCCC[C@H](N)C(=O)O; Dab = NCC[C@H](N)C(=O)O; Dap = NC[C@H](N)C(=O)O; ξDab = NCCC(N)C(=O)O
# Target: T1, PE-labeled human PD-L1-Ig binding to Jurkat cell line over-expressing human PD-1 (Jurkat-PD-1) (Homo sapiens, UniProt Q15116)
# T1 construct: expressed in transfected cells; host or cells: Jurkat
# Assay: Jurkat-PD-1 Cell Binding High-Content Screening Assay (CBA): Method 1
# Conditions: Jurkat HPDL1 PD1 IC50 (uM) (Method 1), Jurkat-hPD-1 cells, PE-labeled PD-L1-Ig 20 nM final
# T1 sequence (Q15116 25-288): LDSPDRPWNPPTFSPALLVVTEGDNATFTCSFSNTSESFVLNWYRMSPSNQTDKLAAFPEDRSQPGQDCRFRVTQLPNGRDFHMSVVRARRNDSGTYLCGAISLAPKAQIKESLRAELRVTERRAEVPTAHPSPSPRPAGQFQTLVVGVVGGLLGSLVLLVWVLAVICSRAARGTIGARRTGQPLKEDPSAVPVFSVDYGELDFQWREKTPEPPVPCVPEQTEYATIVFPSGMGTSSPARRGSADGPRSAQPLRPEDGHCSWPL
row,Structure (SMILES),IC50 [µM]
1,Cc1cccc(C[C@@H]2NC(=O)[C@H](CC(=O)O)NC(=O)[C@H](Cc3ccc(OCC(=O)O)cc3)NC(=O)[C@H](CN)NC(=O)CSC[C@@H](C(=O)N[C@@H](C)C(N)=O)NC(=O)[C@H](CO)NC(=O)[C@H](Cc3ccccc3)NC(=O)[C@H](CC(C)C)NC(=O)[C@H](CC(N)=O)NC(=O)[C@@H](CC(C)C)NC(=O)[C@H](C)N(C)C(=O)[C@H](Cc3ccccc3)NC(=O)[C@H](Cc3ccc(-c4ccccc4)cc3)NC(=O)[C@H](CC(C)C)NC2=O)c1 [Compound 1586] ({CH2CO}-[Dap]Y(Carboxymethyl)D[Phe(3-Me)]L[Bip]F[NMeA][dL]NLFSCA-NH2; thioether N-14),0.54

# Same assay, conditions: Jurkat-hPD-1 cells, PE-labeled PD-L1-Ig 20 nM final; read-out: Jurkat HPDL1 PD1 IC50 (uM) (Method 1)
row,Structure (SMILES),IC50 [µM]
1,CC(C)C[C@@H]1NC(=O)[C@H](CCCNC(=N)N)NC(=O)[C@@H](CC(C)C)NC(=O)[C@H]2CCCN2C(=O)[C@H](CCCNC(=N)N)NC(=O)[C@H](Cc2ccc(-c3ccccc3)cc2)NC(=O)[C@H](C(C)C)NC(=O)[C@H](Cc2c[nH]c3ccccc23)NC(=O)[C@H](CC(=O)O)NC(=O)[C@H](Cc2ccc(O)cc2)NC(=O)[C@H](CC(N)=O)NC(=O)CSC[C@@H](C(=O)N[C@@H](C)C(N)=O)NC(=O)[C@H]([C@@H](C)O)NC(=O)[C@H](C(C)C)NC1=O [Compound 1214] ({CH2CO}-NYDWV[Bip]R[dP][dL]RLVTCA-NH2; thioether N-14),0.05
2,CC(C)C[C@@H]1NC(=O)[C@H](CCCNC(=N)N)NC(=O)[C@@H](Cc2ccc(Br)cc2)NC(=O)[C@H](C)N(C)C(=O)[C@H](CCCNC(=N)N)NC(=O)[C@H](Cc2ccc(-c3ccccc3)cc2)NC(=O)[C@H](C(C)C)NC(=O)[C@H](Cc2c[nH]c3ccccc23)NC(=O)[C@H](CC(=O)O)NC(=O)[C@H](Cc2ccc(O)cc2)NC(=O)[C@H](Cc2ccccc2)NC(=O)CSC[C@@H](C(=O)N[C@@H](C)C(N)=O)NC(=O)[C@H]([C@@H](C)O)NC(=O)[C@H](C(C)C)NC1=O [Compound 1086] ({CH2CO}-FYDWV[Bip]R[NMeA][dPhe(4-Br)]RLVTCA-NH2; thioether N-14),0.69
3,CC(C)C[C@@H]1NC(=O)[C@H](Cc2c[nH]c3ccccc23)NC(=O)[C@H](CC(=O)O)NC(=O)[C@H](Cc2ccc(OCC(=O)O)cc2)NC(=O)[C@H](Cc2ccc(OCC(=O)O)cc2)NC(=O)CSC[C@@H](C(=O)N[C@@H](C)C(N)=O)NC(=O)[C@H](CO)NC(=O)[C@H](C(C)C)NC(=O)[C@H](CC(C)C)NC(=O)[C@H](CCN)NC(=O)[C@@H](CC(C)C)NC(=O)[C@H](C)N(C)C(=O)[C@H](C(C)C)NC(=O)[C@H](Cc2ccc(-c3ccccc3)cc2)NC1=O [Compound 2123] ({CH2CO}-Y(Carboxymethyl)Y(Carboxymethyl)DWL[Bip]V[NMeA][dL][Dab]LVSCA-NH2; thioether N-14),0.02
4,Cc1cccc(C[C@@H]2NC(=O)[C@H](CC(=O)O)NC(=O)[C@H](Cc3ccc(OCC(=O)O)cc3)NC(=O)[C@H](CN3CCOCC3)NC(=O)CSC[C@@H](C(=O)NC(CCN)C(N)=O)NC(=O)[C@H](CCCN)NC(=O)[C@H](C(C)C)NC(=O)[C@H](Cc3ccc(O)cc3)NC(=O)[C@H](CCN)NC(=O)[C@@H](CC(C)C)NC(=O)[C@H](C)N(C)C(=O)[C@H](CCC(N)=O)NC(=O)[C@H](Cc3ccc(-c4ccccc4)cc3)NC(=O)[C@H](Cc3ccc(C(=O)O)cc3)NC2=O)c1 (stereo partly drawn) [Example 2301] ({CH2CO}-[Ala(morpholin-4-yl)]Y(Carboxymethyl)D[Phe(3-Me)][Phe(4-COOH)][Bip]Q[NMeA][dL][Dab]YV[Orn]C[ξDab]-NH2; thioether N-14),0.98
5,Cc1cccc(C[C@@H]2NC(=O)[C@H](CC(=O)O)NC(=O)[C@H](Cc3ccc(OCC(=O)O)cc3)NC(=O)[C@H](Cc3ccc(OCC(=O)O)cc3)NC(=O)CSC[C@@H](C(=O)N[C@@H](C)C(N)=O)NC(=O)[C@H](CO)NC(=O)[C@H](Cc3ccccc3)NC(=O)[C@H](CC(C)C)NC(=O)[C@H](CC(N)=O)NC(=O)[C@@H](CC(C)C)NC(=O)[C@H](C)N(C)C(=O)[C@H](Cc3ccccc3)NC(=O)[C@H](Cc3ccc(-c4ccccc4)cc3)NC(=O)[C@H](CC(C)C)NC2=O)c1 [Compound 1587] ({CH2CO}-Y(Carboxymethyl)Y(Carboxymethyl)D[Phe(3-Me)]L[Bip]F[NMeA][dL]NLFSCA-NH2; thioether N-14),0.7
6,CC(C)C[C@@H]1NC(=O)[C@H](CCCNC(=N)N)NC(=O)[C@@H](CC(C)C)NC(=O)[C@H](C)N(C)C(=O)[C@H](CCCNC(=N)N)NC(=O)[C@H](Cc2ccc(-c3ccccc3)cc2)NC(=O)[C@H](C(C)C)NC(=O)[C@H](Cc2c[nH]c3ccccc23)NC(=O)[C@H](CC(=O)O)NC(=O)[C@H](CCc2ccc(O)cc2)NC(=O)[C@H](Cc2ccccc2)NC(=O)CSC[C@@H](C(=O)N[C@@H](C)C(N)=O)NC(=O)[C@H]([C@@H](C)O)NC(=O)[C@H](C(C)C)NC1=O [Compound 1106] ({CH2CO}-F[hTyr]DWV[Bip]R[NMeA][dL]RLVTCA-NH2; thioether N-14),0.07
7,CC(C)C[C@@H]1NC(=O)[C@H](CCN)NC(=O)[C@@H](CC(C)C)NC(=O)[C@H](C)N(C)C(=O)[C@H](CCCNC(N)=O)NC(=O)[C@H](Cc2ccc(-c3ccccc3)cc2)NC(=O)[C@H](C(C)C)NC(=O)[C@H](Cc2c[nH]c3ccccc23)NC(=O)[C@H](CC(=O)O)NC(=O)[C@H](Cc2ccc(OCC(=O)O)cc2)NC(=O)[C@H](Cc2ccccn2)NC(=O)CSC[C@@H](C(=O)N[C@@H](C)C(N)=O)NC(=O)[C@H]([C@@H](C)O)NC(=O)[C@H](C(C)C)NC1=O [Compound 1329] ({CH2CO}-[2Pal]Y(Carboxymethyl)DWV[Bip][Cit][NMeA][dL][Dab]LVTCA-NH2; thioether N-14),0.19
8,CC(C)C[C@@H]1NC(=O)CSC[C@@H](C(=O)N[C@@H](C)C(N)=O)NC(=O)[C@H]([C@@H](C)O)NC(=O)[C@H](C(C)C)NC(=O)[C@H](CC(C)C)NC(=O)[C@H](CCCNC(=N)N)NC(=O)[C@@H](CC(C)C)NC(=O)[C@H](C)N(C)C(=O)[C@H](CCCNC(=N)N)NC(=O)[C@H](Cc2ccc(-c3ccccc3)cc2)NC(=O)[C@H](C(C)C)NC(=O)[C@H](Cc2c[nH]c3ccccc23)NC(=O)[C@H](CC(=O)O)NC(=O)[C@H](Cc2ccc(O)cc2)NC1=O [Compound 1050] ({CH2CO}-LYDWV[Bip]R[NMeA][dL]RLVTCA-NH2; thioether N-14),0.11
9,CC(C)C[C@H]1NC(=O)[C@H](C)N(C)C(=O)[C@H](C(C)C)NC(=O)[C@H](Cc2ccc(-c3ccccc3)cc2)NC(=O)[C@H](C(C)C)NC(=O)[C@H](Cc2c[nH]c3ccccc23)NC(=O)[C@H](CC(=O)O)NC(=O)[C@H](Cc2ccc(O)cc2)NC(=O)[C@H](Cc2ccc(OCC(=O)O)cc2)NC(=O)CSC[C@@H](C(=O)N[C@@H](C)C(N)=O)NC(=O)[C@H]([C@@H](C)O)NC(=O)[C@H](C(C)C)NC(=O)[C@H](CC2CCCCC2)NC(=O)[C@H](CCN)NC1=O [Compound 1507] ({CH2CO}-Y(Carboxymethyl)YDWV[Bip]V[NMeA][dL][Dab][Cha]VTCA-NH2; thioether N-14),0.01
10,Cc1cccc(C[C@@H]2NC(=O)[C@H](CC(=O)O)NC(=O)[C@H](Cc3ccc(C(=O)O)cc3)NC(=O)[C@H](Cc3ccc(OCC(=O)O)cc3)NC(=O)CSC[C@@H](C(N)=O)NC(=O)[C@H](CO)NC(=O)[C@H](C(C)C)NC(=O)[C@H](CC(C)C)NC(=O)[C@H](CC(N)=O)NC(=O)[C@@H](CC(C)C)NC(=O)[C@H](C)N(C)C(=O)[C@H](CCCNC(N)=O)NC(=O)[C@H](Cc3ccc(-c4ccccc4)cc3)NC(=O)[C@H](CC(C)C)NC2=O)c1 [Compound 1643] ({CH2CO}-Y(Carboxymethyl)[Phe(4-COOH)]D[Phe(3-Me)]L[Bip][Cit][NMeA][dL]NLVSC-NH2; thioether N-14),0.08
11,CCC(C)[C@@H]1NC(=O)[C@H](Cc2ccc(-c3ccccc3)cc2)NC(=O)[C@H](C(C)C)NC(=O)[C@H](Cc2c[nH]c3ccccc23)NC(=O)[C@H](CC(N)=O)NC(=O)[C@H](Cc2ccc(OCC(=O)O)cc2)NC(=O)[C@H](Cc2ccncc2)NC(=O)CSC[C@@H](C(=O)N[C@@H](CCCCN)C(N)=O)NC(=O)[C@H](C(C)O)NC(=O)[C@H](C(C)C)NC(=O)[C@H](CC(C)C)NC(=O)[C@H](CC(N)=O)NC(=O)[C@@H](CC(C)C)NC(=O)[C@H](C)N(C)C1=O (stereo partly drawn) [Compound 2055] ({CH2CO}-[4Pal]Y(Carboxymethyl)NWV[Bip][Ile(3ξ)][NMeA][dL]NLV[Thr(3ξ)]CK-NH2; thioether N-14),0.95
12,Cc1cccc(C[C@@H]2NC(=O)[C@H](CC(=O)O)NC(=O)[C@H](Cc3ccc(OCC(=O)O)cc3)NC(=O)[C@H](Cc3ccncc3)NC(=O)CSC[C@@H](C(=O)N[C@H](CC(N)=O)C(N)=O)NC(=O)[C@H](CO)NC(=O)[C@H](C(C)(C)O)NC(=O)[C@H](CC3CCCCC3)NC(=O)[C@H](CCN)NC(=O)[C@@H](CC(C)C)NC(=O)[C@H](C)N(C)C(=O)[C@H](Cc3ccc(O)cc3)NC(=O)[C@H](Cc3ccc(-c4ccccc4)cc3)NC(=O)[C@H](Cc3ccc(O)cc3)NC2=O)c1 [Compound 2140] ({CH2CO}-[4Pal]Y(Carboxymethyl)D[Phe(3-Me)]Y[Bip]Y[NMeA][dL][Dab][Cha][Val(3-OH)]SC[dN]-NH2; thioether N-14),0.1
13,CCNC(=O)[C@H](CCN)NC(=O)[C@@H]1CSCC(=O)N[C@@H](Cc2ccncc2)C(=O)N[C@@H](Cc2ccc(OCC(=O)O)cc2)C(=O)N[C@@H](CC(=O)O)C(=O)N[C@@H](Cc2cccc(C)c2)C(=O)N[C@@H](Cc2cccc(F)c2)C(=O)N[C@@H](Cc2ccc(-c3ccccc3)cc2)C(=O)N[C@@H](C(C)C)C(=O)N(C)[C@@H](C)C(=O)N[C@H](CC(C)C)C(=O)N[C@@H](CCN)C(=O)N[C@@H](CC2CCCCC2)C(=O)N[C@@H](C(C)(C)O)C(=O)N[C@@H](CO)C(=O)N1 [Compound 1838] ({CH2CO}-[4Pal]Y(Carboxymethyl)D[Phe(3-Me)][Phe(3-F)][Bip]V[NMeA][dL][Dab][Cha][Val(3-OH)]SC[Dab]-NHEt; thioether N-14),0.01
